Active and inactive are the calls of the source.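 Rule for the calls: active = fitted half-maximal inhibitory concentration AC50 at most ten times the top concentration tested; inconclusive = flat fit with 30 to 70% inhibition, or unusable fit; inactive = AC50 above ten times the top concentration.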
Biological target: E3 ubiquitin-protein ligase TRIM62 (Homo sapiens) (UniProt Q9BVG3)
Assay: TRIM62 E3 ligase activity on CARD9 – biochemical, ubiquitin ELISA, AlphaLISA TUBE, CARD9-TRIM62 disruptor project, dose response (AID 1259342);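 for AC50: potency is for inhibitors that reduce CARD9 ubiquitylation signal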
Details: TRIM62-mediated CARD9 ubiquitylation, AlphaLISA TUBE detection

E3 ubiquitin-protein ligase TRIM62 (Homo sapiens), sequence (Q9BVG3 whole entry, looked up): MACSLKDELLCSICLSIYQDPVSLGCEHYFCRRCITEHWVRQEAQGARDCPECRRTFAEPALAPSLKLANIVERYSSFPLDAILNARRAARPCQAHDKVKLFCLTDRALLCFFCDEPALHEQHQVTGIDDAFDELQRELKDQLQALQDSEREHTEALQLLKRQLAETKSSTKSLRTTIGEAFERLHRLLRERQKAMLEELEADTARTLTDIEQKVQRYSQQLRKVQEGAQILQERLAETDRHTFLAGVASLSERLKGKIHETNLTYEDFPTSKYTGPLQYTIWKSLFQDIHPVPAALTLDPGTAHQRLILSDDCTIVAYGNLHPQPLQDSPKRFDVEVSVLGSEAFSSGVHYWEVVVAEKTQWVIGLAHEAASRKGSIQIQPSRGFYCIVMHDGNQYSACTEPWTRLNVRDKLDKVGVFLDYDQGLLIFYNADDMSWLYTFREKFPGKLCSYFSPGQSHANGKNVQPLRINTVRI

| SMILES | activity change, negative = inhibition (at 80 µM (top of the series)) | AC50 | also measured |
| --- | --- | --- | --- |
| O=C(O)c1ccccc1SC1CC(=O)N(Cc2ccccc2)C1=O (stereo not drawn) | inactive |  |  |
| CCN1CCN(C(=O)c2cc(-c3ccco3)nc3ccccc23)CC1 | inactive |  |  |
| CS(=O)(=O)c1ccc2ccn(O)c2c1 | inactive |  |  |
| Cc1noc(CN(C)C(=O)c2cc(-c3ccco3)nc3c(C)c(Cl)ccc23)n1 |  | 49.2 µM |  |
| O=C1CS/C(=N\N=C\c2ccco2)N1c1ccccc1 |  | 22.2 µM |  |
| CC(C)=CCC(C#N)(CC=C(C)C)C(=O)O | inactive |  |  |
| O=[N+]([O-])c1cccc(-c2nnc3ccc4ccccc4n23)c1 | inactive |  |  |
| N#CNc1nc(O)cc(=O)[nH]1 | inactive |  |  |
| CCCc1cc(C(=O)N2CC[C@H]3CNC[C@H]32)n(C)n1 | inactive |  |  |
| O=S(=O)(Nc1nccs1)c1ccc(-n2cccc2)cc1 |  | 17.4 µM |  |
| O=C(Nc1ncccc1O)c1ccc(OCC2CCCO2)cc1 (stereo not drawn) | inactive |  |  |
| O=C(O)c1ccc2nc(-c3ccco3)c(-c3ccco3)nc2c1 |  | 11.8 µM |  |
| CCN(CCNC(=O)C1CCN(S(=O)(=O)c2c(C)noc2C)CC1)c1ccccc1 |  | > 160 µM (inactive) |  |
| CCN1CCOC(=O)C1CC(=O)Nc1cccc(C)c1 (stereo not drawn) | inactive |  |  |
| COc1ccc(F)c(CN2C[C@H]3CC[C@@H]2CN(Cc2cscn2)C3)c1 |  | > 160 µM (inactive) |  |
| O=[N+]([O-])c1ccc2nn(Cc3ccccc3)cc2c1 |  | > 160 µM (inactive) |  |
| COc1ccc(-c2ccc(CCC(=O)O)o2)cc1 |  | 18.1 µM |  |
| O=C(COc1cccnc1[N+](=O)[O-])c1ccc(Cl)s1 |  | 26.2 µM |  |
| N#Cc1c(-c2ccco2)cc(-c2cccnc2)nc1N | inactive |  |  |
| CCNc1ncc(C(=O)NCCc2nc3c(s2)CCCC3)cn1 | inactive |  |  |
| CN(c1ccccc1C(=O)NCc1ccco1)S(C)(=O)=O | inactive |  |  |
| O=[N+]([O-])c1c(NCCCO)cc(SCc2ccco2)c2nonc12 | inactive |  |  |
| Nc1c2c(nc3ccccc13)CCN(Cc1ccccc1)C2 |  | > 160 µM (inactive) |  |
| O=C(CN1CCN(c2ccccc2O)CC1)NC(=O)NC1CCCC1 |  | > 160 µM (inactive) |  |
| CC1(C)Cc2c(c(N3CCOCC3)nc3sc(C(=O)NCc4ccco4)c(N)c23)CO1 | inactive |  |  |
| Cc1ccc(-c2nnc(-c3nc(Nc4nc5ccccc5s4)c4ccccc4n3)o2)cc1 |  |  | activity change, negative = inhibition (at 38 µM (top of the series)): inactive |

| SMILES | activity change, negative = inhibition (at 80 µM (top of the series)) | AC50 | also measured |
| --- | --- | --- | --- |
| O=C1NC(c2ccc(Br)cc2)Nc2sc3c(c21)CCC3 (stereo not drawn) |  |  | activity change, negative = inhibition (at 38 µM (top of the series)): inactive |
| COCCn1c(C)cc(-c2csc(N)n2)c1C |  | 68.3 µM |  |
| O=C(Nc1nc(-c2ccccn2)cs1)c1cccc(-n2cnnn2)c1 |  |  | activity change, negative = inhibition (at 38 µM (top of the series)): inactive |
| O=C(NC1CC1)c1cc(-c2ccco2)nc2ccccc12 |  | 21.2 µM |  |
| O=C(CC1Nc2ccccc2OC1=O)Nc1ccc(Cl)cc1 (stereo not drawn) |  | > 160 µM (inactive) |  |
| N#Cc1c(NC(=O)CSc2nc3ccccc3o2)sc2c1CCC2 |  | 74.1 µM |  |
| CCCN1CCCn2nc(CNC(=O)[C@@H](N)Cc3ccc(O)cc3)cc2C1 | inactive |  |  |
| Cc1cc(C(=O)Nc2nc3c(s2)CCc2ccccc2-3)no1 | inactive |  |  |
| CCOc1ccc(CNc2nc(-c3nnc(-c4ccc(F)cc4)o3)nc3ccccc23)cc1 | inactive |  |  |
| CC1Cc2ccccc2N1CC(=O)NC(=O)NC(C)(C)C (stereo not drawn) |  | > 160 µM (inactive) |  |
| O=C(Cn1cncc1-c1ccc([N+](=O)[O-])cc1)Nc1ccccc1F | inactive |  |  |
| O=C(Nc1ccc2c(c1)nc1n2CCN(C2CCCCC2)C1)c1ccco1 | inactive |  |  |
| CCOC(=O)c1[nH]c(Cc2[nH]c(C(=O)OCC)c(C)c2C)c(C)c1C |  | > 160 µM (inactive) |  |
| Cc1ccc(C(=O)Nc2ccc(N3CCC(C(N)=O)(N4CCCCC4)CC3)c(C(=O)O)c2)cc1 | inactive |  |  |
| COc1ccc(N2Cc3cccc(C(=O)NC(C)CCc4ccco4)c3C2=O)cc1 (stereo not drawn) | inactive |  |  |
| CC(=O)c1ccc(NC(=O)c2noc3c2CCC3)cc1 |  |  | activity change, negative = inhibition (at 38 µM (top of the series)): inactive |
| COc1ccc(CNC(=O)c2nc(Nc3ccc(C)cc3)c3ccccc3n2)cc1 | inactive |  |  |
| CCOC(=O)/C=C/S(=O)(=O)c1ccc(NC(C)=O)cc1 | inactive |  |  |
| CCc1nccn1CCC(=O)N1C[C@H](CO)C[C@H](CN2CCCC2)C1 | inactive |  |  |
| Cc1oc(CSCc2cc(C(=O)O)c(C)o2)cc1C(=O)O |  | > 160 µM (inactive) |  |
| O=C(O)COc1ccc(-n2cccc2)cc1 |  | 14.7 µM |  |
| C[C@H](CO)N1C[C@H](C)[C@@H](CN(C)CC2CCCCC2)OCCCC[C@H](C)Oc2ccc(NS(C)(=O)=O)cc2C1=O |  | > 160 µM (inactive) |  |
| CCC1c2ccc(C)n2CCN1C(=O)Nc1ccccc1C(=O)OC (stereo not drawn) |  | 72.5 µM |  |
| Cn1ncc2c(NNC(=O)c3cc(O)cc(O)c3)ncnc21 | inactive |  |  |
| COCCCNC(=O)C1CCN(c2ccc(N3CCOCC3)nn2)CC1 | inactive |  |  |
| Cc1cc(C)c2c(N)c(C(=O)Nc3cccc4ccccc34)sc2n1 | inactive |  |  |

| SMILES | activity change, negative = inhibition (at 80 µM (top of the series)) | AC50 | also measured |
| --- | --- | --- | --- |
| c1cn(CCc2noc(C3CCCC3)n2)c(-c2cc3n(n2)CCCNC3)n1 | inactive |  |  |
| O=C(Nc1ccon1)c1cc2cccnc2n(Cc2ccccc2)c1=O | inactive |  |  |
| CCc1oc2ccccc2c1C(=O)CCN1CCCCC1 | inactive |  |  |
| O=C(NCCCN1CCOCC1)c1cc(-c2ccco2)nc2ccccc12 |  | 11.3 µM |  |
| O=C(COC(=O)c1ccccc1Oc1ccccc1)NCc1ccco1 |  |  | activity change, negative = inhibition (at 38 µM (top of the series)): inactive |
| O=C(NCCc1ccco1)c1ccc(OCc2cn3ccccc3n2)cc1 |  |  | activity change, negative = inhibition (at 38 µM (top of the series)): inactive |
| C=CCNc1ncnc2c1CCN(C(=O)c1ccc(CSC)o1)CC2 | inactive |  |  |
| O=C(COC(=O)CCC(=O)c1cccs1)NCc1ccco1 |  | 16.6 µM |  |
| O=C(CCN1CCOCC1)c1ccc2c(c1)OCCO2 | inactive |  |  |
| N#Cc1c(-c2ccco2)cc(-c2ccccn2)nc1N | inactive |  |  |
| CCOc1cc2c(C#N)c(N3CCNCC3)nc(N)c2c(N)n1 |  | > 160 µM (inactive) |  |
| N#Cc1c2ccc(OCC(=O)NCc3ccco3)cc2n2ccccc12 | inactive |  |  |
| CC(=O)Nc1ccc2nc3c(=O)n(C)c(=O)n(C)c3nc2c1 |  | 48.2 µM |  |
| O=c1oc(-c2ccccc2)nc2sc3c(c12)CCC3 |  | > 160 µM (inactive) |  |
| O=C(O)CCc1ccc(-c2cccs2)n1NC(=O)c1ccco1 |  | 63.5 µM |  |
| COc1ccc(-c2nnc(-c3nc(Nc4ccc(NC(C)=O)cc4)c4ccccc4n3)o2)cc1 | inactive |  |  |
| Cc1cc(C(=O)NCc2ccco2)on1 | inactive |  |  |
| O=C(O)c1cc(-c2ccc(-c3ccc(F)cc3)o2)nc2ccccc12 |  | 31.4 µM |  |
| Cc1ccc(-c2cc(C(=O)NCc3ccco3)c3ccccc3n2)o1 |  |  | activity change, negative = inhibition (at 38 µM (top of the series)): inactive |
| O=C(Cc1ccc(S(=O)(=O)N2CCOCC2)s1)Nc1nc2c(s1)CCCC2 |  | 26 µM |  |
| Fc1ccc(CSc2nnc(-c3cccnc3)n2Cc2ccco2)cc1 | inactive |  |  |
| O=C(O)COCC(=O)NCc1ccco1 | inactive |  |  |
| Cc1ccc2cc(CN(Cc3ccco3)S(C)(=O)=O)c(=O)[nH]c2c1 | inactive |  |  |
| CC(CCc1ccco1)N(C)S(=O)(=O)c1ccc2[nH]c(=O)ccc2c1 (stereo not drawn) | inactive |  |  |
| NC(=O)C1(N2CCCCC2)CCN(c2ccc(NC(=O)c3ccccc3F)cc2C(=O)O)CC1 | inactive |  |  |
| COc1cc(N)c(Cc2nccc3cc(OC)c(OC)cc23)cc1OC |  | 79.5 µM |  |

| SMILES | activity change, negative = inhibition (at 80 µM (top of the series)) | AC50 | also measured |
| --- | --- | --- | --- |
| O=C1c2ccccc2-c2nc3ccccc3nc21 |  | > 160 µM (inactive) |  |
| O=C(CCn1cncn1)N1CCC(n2cc(-c3ccccn3)nn2)CC1 | inactive |  |  |
| Nc1cc2c(cc1O)CCCC2 |  | 49.4 µM |  |
| O=C(Nc1nncs1)c1cc(-c2ccco2)nc2ccccc12 |  | 28.8 µM |  |
| O=C1C=C(c2ccccc2)Nc2ccccc2N1 | inactive |  |  |
| O=C(CCc1nc(-c2ccccc2)no1)NCC1CNCCOC1 (stereo not drawn) | inactive |  |  |
| C=CC(=O)N1CCCC2(CCN(CCN3CCCC3)C2=O)C1 (stereo not drawn) |  | 50.8 µM |  |
| CCn1ccnc1C1CCN(C(=O)CCn2c(C)nc3ccccc32)CC1 | inactive |  |  |
| O=C(O)c1cc(-c2ccco2)nc2ccccc12 | inactive |  |  |
| O=C(CCCN1C(=O)NC2(CCCC2)C1=O)Nc1ccc(F)cc1 | inactive |  |  |
| CCc1cc2c(=O)n(Cc3ccco3)c(SC)nc2s1 |  | > 160 µM (inactive) |  |
| CC(C(=O)N1CCCC1)N1CCN(c2ccccc2O)CC1 (stereo not drawn) | inactive |  |  |
| Cc1nc(C)c(C(=O)Nc2ncc([N+](=O)[O-])s2)o1 |  | 3.96 µM |  |
| CCCC(=O)NCc1ccc2c(c1)cc(C)n2C |  | > 160 µM (inactive) |  |
| Cc1ccc(-c2cc(C(=O)Nc3ccccn3)c3ccccc3n2)o1 |  | 60.9 µM |  |
| COc1ccc2nc(-c3ccco3)c(-c3ccco3)nc2c1 |  | 24.9 µM |  |
| O=S(=O)(c1ccc2nc(-c3ccco3)c(-c3ccco3)nc2c1)N1CCOCC1 |  | 31.1 µM |  |
| COc1ccc(Nc2nc(-c3nnc(-c4ccc(F)cc4)o3)nc3ccccc23)cc1Cl | inactive |  |  |
| CC(=O)Nc1ccc(Nc2nc(-c3nnc(-c4cccc(C)c4)o3)nc3ccccc23)cc1 |  | 19 µM |  |
| O=C(Cc1cccs1)Nc1nnc(Cc2ccccc2)s1 |  | 41.2 µM |  |
| C(=C\c1ccco1)/c1nc2ccccc2[nH]1 |  | 29 µM |  |
| CC(=O)c1sc2nc(-c3ccco3)ccc2c1N |  | 24.5 µM |  |
| O=C(NCc1ccco1)c1ccc(S(=O)(=O)N2CCOCC2)cc1 | inactive |  |  |
| COc1ccc(NC(=O)c2nc(Nc3ccccc3)c3ccccc3n2)cc1 |  | 67.8 µM |  |
| Nc1ccc2ncccc2c1N | inactive |  |  |

— PubChem BioAssay AID1259342 (Broad Institute, 2017)
